Experimental findings from EP0601184A1, “FUSED PYRIDAZINE COMPOUND AND PHARMACEUTICAL USE THEREOF” (YOSHITOMI PHARMACEUTICAL INDUSTRIES, LTD., priority 1991, dated 1993) are described below.

The Ki is a dissociation constant, usually derived from enzyme kinetics or from competition with a known ligand.

For one series, the system named is male ddY mice. The series is described as follows: Acute toxicity. Format: in vivo. To be noted: 5 days. As to the method:
Groups of 5 male ddY mice were used. […] Similarly, the mice were orally administered with 1000 mg/kg of the compound, but they survived for 5 days after the administration.

Series [1] deals with benzodiazepine (BZP) receptors. The series is described as follows: Displacement ability for benzodiazepine receptor (tritiated diazepam binding, crude synaptosome fraction of cerebral cortex). On the set-up: species or system Wistar rats. To be noted: displacement of tritiated diazepam (2 nM), 0°C, 20 minutes, rat cerebral cortex synaptosome fraction. The procedure:
The test of specific binding to benzodiazepine (BZP) receptors was carried out according to the method described in Life Science, vol. 20, 2101 (1977).
The crude synaptosome fraction isolated from the cerebral cortex of male Wistar rats aged 9-10 weeks, was suspended in 50 mM Trishydrochloric acid buffer (pH 7.4) containing 120 mM sodium chloride and 5 mM potassium chloride. The suspension was used for the following experiment.
The test compound in several different concentrations and tritiated diazepam (in final concentration of 2 nM) were added to the synaptosomal suspension, and the mixture was incubated at 0°C for 20 minutes. The suspension was filtered with Whatman GF/B (Trademark) glassfiber filter. After the filter was washed with the above-mentioned buffer, the radio activity left on the filter was measured with a liquid scintillation counter.
The specific binding was determined by subtracting the binding in the presence of 10⁻⁶ M unlabelled diazepam from total binding.
The affinity for benzodiazepine receptors of the compound of the present invention is evaluated from its displacement ability for tritiated diazepam at its binding site, which is represented by Ki value (nM).

Series [2] relates to GABA-induced chloride current. The class given is cell-based, American bullfrogs. Conditions: dorsal root ganglion neurons. The procedure:
The test was carried out according to the method of Akaike et al. reported in Journal of Physiology (London), 379, 171 (1986) using sensory neurons isolated from dosal root ganglion of American bullfrogs. Neurons were voltage-clamped at a holding membrane potential of -50 mV with a single-electrode voltage-clamp system. Test compounds were applied by using a concentration-clamp technique. When the peak Cl⁻ current (ICl) elicited by 3 x 10⁻⁶ M GABA alone was presented as 1, the augumentive ICl of the test compounds in the presence of 3 x 10⁻⁶ M GABA was measured. The results were presented as relative ICl values in Table 1.

As for `O=C(c1ccccc1)c1cc2c(s1)CCC1CC(=O)N(c3ccc(Cl)cc3)N=C21` (stereo not shown) [Example 16, 8-benzoyl-2-(4-chlorophenyl)-4,4a,5,6-tetrahydrothieno[2,3-h]cinnolin-3(2H)-one], the survival after administration result with male ddY mice (300 mg/kg intraperitoneally, groups of 5 male ddY mice) is given as “all mice survived”; in the series with male ddY mice (1000 mg/kg orally, male ddY mice) it was “survived”.

The compound `CC(=O)c1cc2c(s1)CCCC1CC(=O)N(c3ccc(Cl)cc3)N=C21` (stereo not shown) [Example 18, 9-acetyl-2-(4-chlorophenyl)-2,4,4a,5,6,7-hexahydro-3H-thieno[2',3':6,7]cyclohepta[1,2-c]pyridazin-3-one] had a Ki in series [1] of 4.2 nM. Also, in series [2], the “Relative ICl” value is reported as 1.38.
